Test results reported in patent publication US20180045715A1, “STRUCTURE AND FUNCTION OF THE SALICYCLIC ACID BINDING SITES ON HUMAN HMGB1 AND METHODS OF USE THEREOF FOR THE RATIONAL DESIGN OF BOTH SALICYCLIC ACID DERIVATIVES AND OTHER AGENTS THAT ALTER ANIMAL AND PLANT HMGBS ACTIVITIES” (Boyce Thompson Institute for Plant Research, Inc., priority 2015, published 2018).
“And” between values parts separate entries of the source, which are not always exact repeats. Equal entries are not always repeated. Where two headings read alike, the source gives them in different places.

Assays:
HMGB1 Box A domain = molecular target: T1, HMGB1 Box A domain (Homo sapiens, UniProt P09429); assay: 15N-1H HSQC titration for Kd measurement; type: binding
T1 construct: (iii) Box A: residues 10-80; hexaHis (TEV-cleavable) (N, cleaved yes); made in house
T1 sequence (P09429 10-80): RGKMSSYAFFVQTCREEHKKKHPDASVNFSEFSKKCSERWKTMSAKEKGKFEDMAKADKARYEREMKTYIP
Experimental: (§1) […] Samples were analyzed with and without SA or other candidate inhibitors at 25° C. Chemical shift perturbation studies were carried out using either a Bruker Avance 800 MHz Avance NMR system with 4-mm NMR tubes, or using a Bruker Avance 600 MHz NMR spectrometer equipped with a 1.7 mm micro cryoprobe. 1024 or 2048 complex points were acquired for each of 80 to 200 increments in the ^15N dimension with a recycle delay of 1 s. Each spectrum was typically acquired for 2-8 hrs. Chemical shift assignments were determined using a uniformly ^13C,^15N-enriched HMGB1-ΔC construct at 25° C. via traditional triple-resonance NMR experiments (Biamonti et al., 1994; Moseley et al., 2001) recorded on a Bruker 800 MHz NMR spectrometer equipped with a 5 mm cryoprobe. Disulfide oxidation studies were carried out using the ^15N-^1H SOFAST-HMQC NMR experiment (Schanda & Brutscher, 2005; Schanda et al., 2005; Zandarashvili et al., 2013).
NMR experiments were used to discover that ac3AESA binds to HMGB1 Box A domain of HMGB1 more tightly than SA itself. […] Chemical shift perturbations (CSPs) are defined as Δδppm=[(δHN*6.5)^2+δN^2]^1/2.

AtHMGB3 = molecular target: T2, AtHMGB3 (Arabidopsis thaliana, UniProt P93047); settings: co-infiltration of 1-10 μM SA, 1 μM AtHMGB3
T2 sequence (P93047 1-141): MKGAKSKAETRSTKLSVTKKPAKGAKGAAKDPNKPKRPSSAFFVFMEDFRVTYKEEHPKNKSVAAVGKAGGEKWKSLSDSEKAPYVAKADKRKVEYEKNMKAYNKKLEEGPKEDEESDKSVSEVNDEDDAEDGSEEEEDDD
Experimental: To detect the phosphorylation of Arabidopsis MAPKs (MPK3/4/6), 3 to 4 week-old soil grown Arabidopsis leaves were infiltrated with 1 μM AtHMGB3 or 1 μM Pep1 peptide ([…]; synthesized by GenScript USA Inc.). Two leaf disks were cut from the leaf center of two different leaves using a cork borer (diameter=0.7 cm) and immediately frozen and ground to fine powder in liquid nitrogen. […] The protein concentration of supernatant was measured using the Bradford reagent (Bio-Rad). Forty μg of proteins per sample was separated on the 8% SDS-PAGE and transferred to a PVDF membrane for immunoblotting using the anti-phospho-p44/42 MAPK antibody (Cell Signaling Technology). The large subunit of Rubisco was visualized by Coomassie Brilliant Blue (CBB) staining of the PVDF membrane in order to assess consistency of loading.

[1] = molecular target: T3, mutant (R24A/K28A) HMGB1^RE (Homo sapiens, UniProt P09429, K28A/R24A); assay: Chemotaxis assay with mutant R24A/K28A HMGB1^RE; type: cell-based; settings: NIH/3T3 fibroblasts
T3 construct: (i) full length: residues 2-215; made in house
T3 sequence (P09429 2-215 R24A/K28A): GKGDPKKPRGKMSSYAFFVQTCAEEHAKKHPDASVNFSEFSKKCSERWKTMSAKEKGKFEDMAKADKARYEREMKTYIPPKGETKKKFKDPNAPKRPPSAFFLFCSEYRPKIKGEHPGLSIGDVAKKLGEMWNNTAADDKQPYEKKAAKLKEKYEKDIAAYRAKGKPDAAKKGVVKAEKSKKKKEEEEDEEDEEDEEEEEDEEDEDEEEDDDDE
Experimental: Cell migration was assayed using Boyden chambers (Venereau et al., 2012). The downside of PVP-free polycarbonate filters (8 μm pores; Millipore) was coated with 50 μg/ml fibronectin (Sigma). Serum-free DMEM (negative control), DMEM containing 0.1 nM fMLP (positive control; Sigma), or DMEM containing 1 nM HMGB1^RE or HMGB1^SS were placed in the lower chamber, together with different concentrations of SA (Sigma). The mouse 3T3 fibroblast cells were cultured in DMEM media supplemented with 10% CS until 90% confluence, washed twice with PBS to eliminate any floating cells, and harvested with trypsin. 50,000 cells in 200 μL were added to the upper chamber, and cells were left to migrate for 3 h at 37° C. Non-migrating cells were removed with a cotton swab, and migrated cells were fixed with ethanol and stained with Giemsa.
(§2) An alternative explanation is that SA, at low concentrations, affects another factor in vivo, which results indirectly in suppression of HMGB1^RE-induced chemotaxis. […] Therefore, these residues were mutated to Ala to form the double mutant Arg24Ala/Lys28Ala (R24A/K28A).

[2] = molecular target: T4, full-length (FL) R24A/K28A HMGB1 (Homo sapiens, UniProt P09429, K28A/R24A); assay: 15N-1H HSQC NMR binding to R24A/K28A HMGB1; settings: ~0.1 mM protein; 15 mM SA, 3 mM ac3AESA or 3 mM amorfrutin B1
T4 construct: (i) full length: residues 2-215; made in house
T4 sequence (P09429 2-215 R24A/K28A): T3 sequence (P09429 2-215 R24A/K28A)
Experimental: as §1, §2

[3] = after intake of 500 mg of aspirin; cited from earlier work

## O=C(O)c1ccccc1O [SA, salicylic acid]
HMGB1 Box A domain; 0.2 mM Box A, pH 7.5, read-out: Kd of binding to HMGB1 Box A (HSQC titration, 1:1 fit)
  Kd: ~90 mM and 90 mM
HMGB1 Box A domain; Box A or full-length HMGB1, read-out: Kd from titrating SA with either Box A or full-length HMGB1
  Kd: ~10 mM
HMGB1 Box A domain; read-out: affinity (Kd) for Box A of HMGB1 as stated in definitions
  Kd: ~10 mM
AtHMGB3
  effect on MPK3/6 activation by AtHMGB3: blocked
[1]
  inhibition of R24A/K28A HMGB1^RE's chemo-attractant activity: not inhibited
[2]
  binding to R24A/K28A HMGB1 (CSPs in HSQC): does not bind
[3]
  time to reach the stated SA plasma concentration: ≤ 1 h
